Assays:
Assay type in all cases: in vivo
[1] = tested on: Russian thistle (Salsola iberica); test: Test B pre-/postemergence plant response; conditions: Preemergence
Summary of the method: (§1)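 Visual scoring from 0 (no effect) to 100 (complete control) against untreated controls was done 13 to 15 days after greenhouse treatment. Chemicals were formulated in a surfactant-containing non-phytotoxic solvent and applied to soil preemergence or to 1- to 4-leaf (2-18 cm) plants postemergence.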

[2] = tested on: common (oilseed) sunflower (Helianthus annuus); test: Test B pre-/postemergence plant response; conditions: Preemergence
Summary of the method: as §1

[3] = tested on: downy bromegrass (Bromus tectorum); test: Test B pre-/postemergence plant response; conditions: for Bromegrass, Downy plant response rating: 8 g ai/ha
Summary of the method: as §1

[4] = tested on: eastern black (E.B.) nightshade (Solanum ptycanthum); test: Test B pre-/postemergence plant response; conditions: Preemergence
Summary of the method: as §1

[5] = tested on: giant foxtail (Setaria faberii); test: Test B pre-/postemergence plant response; conditions: for Foxtail, Giant plant response rating: 8 g ai/ha
Summary of the method: as §1

[6] = tested on: goosegrass (Eleusine indica); test: Test B pre-/postemergence plant response; conditions: for Goosegrass plant response rating: 8 g ai/ha
Summary of the method: as §1

[7] = tested on: morningglory (Ipomoea coccinea); test: Test B pre-/postemergence plant response; conditions: for Morningglory plant response rating: 8 g ai/ha
Summary of the method: as §1

[8] = tested on: soybean (Glycine max); test: Test B pre-/postemergence plant response
Summary of the method: as §1

[9] = tested on: surinam grass (Brachiaria decumbens); test: Test B pre-/postemergence plant response; conditions: for Surinam Grass plant response rating: 8 g ai/ha
Summary of the method: as §1

[10] = tested on: wheat (Triticum aestivum); test: Test B pre-/postemergence plant response; conditions: for Wheat plant response rating: 8 g ai/ha
Summary of the method: as §1

[11] = tested on: barnyardgrass (Echinochloa crus-galli); test: Test B flooded paddy test plant response
Summary of the method: (§2)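 Step one: raise plants to 2 leaves. Step two: flood pots 3 cm over the soil and apply compound into the water, keeping this depth. Step three: after 13–15 greenhouse days, score visually versus controls, 0–100, where 100 means complete control.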

[12] = tested on: ducksalad (Heteranthera limosa); test: Test B flooded paddy test plant response
Summary of the method: as §2

[13] = tested on: rice (Oryza sativa); test: Test B flooded paddy test plant response
Summary of the method: as §2

[14] = tested on: umbrella sedge (Cyperus difformis); test: Test B flooded paddy test plant response
Summary of the method: as §2

[15] = 16 g ai/ha, scale 0 to 100 (0 no effect, 100 complete control)
[16] = 31 g ai/ha, 0 to 100 scale, 0 no effect, 100 complete control
[17] = Postemergence, 16 g ai/ha, scale 0 to 100
[18] = Postemergence, 31 g ai/ha, scale 0 to 100, 0 no effect, 100 complete control
[19] = Postemergence, 62 g ai/ha, scale 0 to 100
[20] = Preemergence, 16 g ai/ha, scale 0 to 100 (0 no effect, 100 complete control)
[21] = Preemergence, 31 g ai/ha, 0 to 100 scale, 0 no effect, 100 complete control
[22] = Preemergence, 62 g ai/ha, scale 0 to 100
[23] = Flood (flooded paddy test), 62 g ai/ha, scale 0 to 100, 0 no effect, 100 complete control
[24] = Flood (flooded paddy test), 125 g ai/ha, scale 0 to 100, 0 no effect, 100 complete control
[25] = Flood (flooded paddy test), 250 g ai/ha, scale 0 to 100, 0 no effect, 100 complete control
[26] = Flood, 31 g ai/ha, scale 0 to 100

SMILES: CCc1cc(-c2ccc(Cl)cc2)nn1-c1c(O)cnn(C)c1=O [Compound 21]
- Plant response rating, Russian Thistle [1, 15]: 0
- Plant response rating, Russian Thistle [1, 16]: 0
- Plant response rating, Russian Thistle ([1]; 62 g ai/ha, scale 0 to 100): 0
- Russian Thistle plant response rating ([1]; 8 g ai/ha, scale 0 to 100): 0
- Plant response rating, Sunflower [2, 15]: 0
- Plant response rating, Sunflower [2, 16]: 0
- Plant response rating, Sunflower ([2]; 62 g ai/ha, scale 0 to 100): 0
- Bromegrass, Downy plant response rating ([3]; postemergence, 0-100 scale): 55
- Plant response rating, Bromegrass, Downy [3, 17]: 55
- Plant response rating, Bromegrass, Downy [3, 18]: 80
- Plant response rating, Bromegrass, Downy [3, 19]: 85
- Plant response rating, Bromegrass, Downy [3, 20]: 50
- Plant response rating, Bromegrass, Downy [3, 21]: 60
- Plant response rating, Bromegrass, Downy [3, 22]: 100
- Bromegrass, Downy plant response rating ([3]; Preemergence, scale 0 to 100): 0
- Plant response rating, Nightshade, E. B. [4, 15]: 0
- Plant response rating, Nightshade, E. B. [4, 16]: 0
- Nightshade, E. B. plant response rating ([4]; 8 g ai/ha, scale 0 to 100): 0
- Foxtail, Giant plant response rating ([5]; postemergence, 0-100 scale): 98
- Plant response rating, Foxtail, Giant [5, 17]: 100
- Plant response rating, Foxtail, Giant [5, 18]: 100
- Plant response rating, Foxtail, Giant [5, 19]: 100
- Plant response rating, Foxtail, Giant [5, 20]: 100
- Plant response rating, Foxtail, Giant [5, 21]: 100
- Plant response rating, Foxtail, Giant [5, 22]: 100
- Foxtail, Giant plant response rating ([5]; Preemergence, scale 0 to 100): 85
- Goosegrass plant response rating ([6]; postemergence, 0-100 scale): 65
- Plant response rating, Goosegrass [6, 17]: 80
- Plant response rating, Goosegrass [6, 18]: 95
- Plant response rating, Goosegrass [6, 19]: 100
- Plant response rating, Goosegrass [6, 20]: 80
- Plant response rating, Goosegrass [6, 21]: 95
- Plant response rating, Goosegrass [6, 22]: 100
- Goosegrass plant response rating ([6]; Preemergence, scale 0 to 100): 10
- Morningglory plant response rating ([7]; postemergence, 0-100 scale): 0
- Plant response rating, Morningglory [7, 17]: 0
- Plant response rating, Morningglory [7, 18]: 0
- Plant response rating, Morningglory [7, 19]: 0
- Plant response rating, Morningglory [7, 20]: 0
- Plant response rating, Morningglory [7, 21]: 0
- Plant response rating, Morningglory [7, 22]: 0
- Morningglory plant response rating ([7]; Preemergence, scale 0 to 100): 0
- Soybean plant response rating ([8]; 8 g ai/ha, postemergence, 0-100 scale): 0
- Plant response rating, Soybean [8, 17]: 0
- Plant response rating, Soybean [8, 18]: 0
- Plant response rating, Soybean [8, 19]: 10
- Plant response rating, Soybean [8, 21]: 0
- Surinam Grass plant response rating ([9]; postemergence, 0-100 scale): 100
- Plant response rating, Surinam Grass [9, 17]: 100
- Plant response rating, Surinam Grass [9, 18]: 100
- Plant response rating, Surinam Grass [9, 19]: 100
- Plant response rating, Surinam Grass [9, 20]: 100
- Plant response rating, Surinam Grass [9, 22]: 100
- Surinam Grass plant response rating ([9]; Preemergence, scale 0 to 100): 98
- Wheat plant response rating ([10]; postemergence, 0-100 scale): 50
- Plant response rating, Wheat [10, 17]: 85
- Plant response rating, Wheat [10, 18]: 90
- Plant response rating, Wheat [10, 19]: 100
- Plant response rating, Wheat [10, 20]: 30
- Plant response rating, Wheat [10, 21]: 85
- Plant response rating, Wheat [10, 22]: 95
- Wheat plant response rating ([10]; Preemergence, scale 0 to 100): 0
- Plant response rating, Barnyardgrass [11, 23]: 75
- Plant response rating, Barnyardgrass [11, 24]: 80
- Plant response rating, Barnyardgrass [11, 25]: 100
- Plant response rating, Barnyardgrass [11, 26]: 55
- Plant response rating, Ducksalad [12, 23]: 0
- Plant response rating, Ducksalad [12, 24]: 0
- Plant response rating, Ducksalad [12, 25]: 65
- Plant response rating, Ducksalad [12, 26]: 0
- Plant response rating, Rice [13, 23]: 0
- Plant response rating, Rice [13, 24]: 20
- Plant response rating, Rice [13, 25]: 70
- Plant response rating, Rice [13, 26]: 0
- Plant response rating, Sedge, Umbrella [14, 23]: 0
- Plant response rating, Sedge, Umbrella [14, 24]: 0
- Plant response rating, Sedge, Umbrella [14, 25]: 30
- Plant response rating, Sedge, Umbrella [14, 26]: 0
